We go through 4 molecules from paper PMC9837035 (Nature Communications, 2023).

For one series, the target named is T1, DNMT3b/3L (Homo sapiens, UniProt Q9UBC3).
T1 construct: purchased Reaction Biology
The series can be described thus: Radioisotope-based methyltransferase assay (selectivity). It is filed as biochemical.

In a further series the target is T2, SMYD2 (Homo sapiens, UniProt Q9NRG4).
T2 construct: purchased Reaction Biology
The series is described as above. It is filed as biochemical.

In series [1] the test system is BCL11A- or ZBTB7A-knockout HUDEP-2 cells. The series can be described thus: RT-qPCR of BGLT3, β- and γ-globin in BCL11A- or ZBTB7A-knockout HUDEP-2 cells. It is filed as cell-based, human. On the procedure:
Total cellular RNA was prepared using the Tissue Total RNA Mini Kit (FAVORGEN), and cDNA was synthesized using ReverTra Ace Master Mix (TOYOBO). Expression of target genes was analyzed using THUNDERBIRD SYBR qPCR Mix (TOYOBO) on a CFX Connect Real Time System (Bio-Rad). The qPCR data were acquired on CFX Maestro (Bio-Rad). Primers are listed in Supplementary Table 10. GAPDH was used as a reference. Primers were purchased from INTEGRATED DNA TECHNOLOGIES or FASMAC.

Series [2] can be described thus: Cell viability assay (WST-8), H9c2. The series is classed as cell-based, rat. As to conditions: rat, H9c2 myoblast cells, control (0 μM) = 100. On the procedure: (§1) A WST-8 (2-(2-methoxy-4-nitrophenyl)-3-(4-nitrophenyl)-5-(2,4-disulfophenyl)-2H-tetrazolium) assay using a Cell Counting Kit-8 (DOJINDO) was performed to measure cell viability using an EnSpire microplate reader (PerkinElmer).

Series [3] has as its system rat myoblast cell line H9c2. Put plainly: Cell viability assay (WST-8), H9c2. The series is classed as cell-based. As to conditions: for cell viability in H9c2 cells: control (0 μM) = 100. On the procedure:
as §1

Another series deals with T3, G9a (Homo sapiens, UniProt Q96KQ7).
T3 sequence (Q96KQ7 1-1210): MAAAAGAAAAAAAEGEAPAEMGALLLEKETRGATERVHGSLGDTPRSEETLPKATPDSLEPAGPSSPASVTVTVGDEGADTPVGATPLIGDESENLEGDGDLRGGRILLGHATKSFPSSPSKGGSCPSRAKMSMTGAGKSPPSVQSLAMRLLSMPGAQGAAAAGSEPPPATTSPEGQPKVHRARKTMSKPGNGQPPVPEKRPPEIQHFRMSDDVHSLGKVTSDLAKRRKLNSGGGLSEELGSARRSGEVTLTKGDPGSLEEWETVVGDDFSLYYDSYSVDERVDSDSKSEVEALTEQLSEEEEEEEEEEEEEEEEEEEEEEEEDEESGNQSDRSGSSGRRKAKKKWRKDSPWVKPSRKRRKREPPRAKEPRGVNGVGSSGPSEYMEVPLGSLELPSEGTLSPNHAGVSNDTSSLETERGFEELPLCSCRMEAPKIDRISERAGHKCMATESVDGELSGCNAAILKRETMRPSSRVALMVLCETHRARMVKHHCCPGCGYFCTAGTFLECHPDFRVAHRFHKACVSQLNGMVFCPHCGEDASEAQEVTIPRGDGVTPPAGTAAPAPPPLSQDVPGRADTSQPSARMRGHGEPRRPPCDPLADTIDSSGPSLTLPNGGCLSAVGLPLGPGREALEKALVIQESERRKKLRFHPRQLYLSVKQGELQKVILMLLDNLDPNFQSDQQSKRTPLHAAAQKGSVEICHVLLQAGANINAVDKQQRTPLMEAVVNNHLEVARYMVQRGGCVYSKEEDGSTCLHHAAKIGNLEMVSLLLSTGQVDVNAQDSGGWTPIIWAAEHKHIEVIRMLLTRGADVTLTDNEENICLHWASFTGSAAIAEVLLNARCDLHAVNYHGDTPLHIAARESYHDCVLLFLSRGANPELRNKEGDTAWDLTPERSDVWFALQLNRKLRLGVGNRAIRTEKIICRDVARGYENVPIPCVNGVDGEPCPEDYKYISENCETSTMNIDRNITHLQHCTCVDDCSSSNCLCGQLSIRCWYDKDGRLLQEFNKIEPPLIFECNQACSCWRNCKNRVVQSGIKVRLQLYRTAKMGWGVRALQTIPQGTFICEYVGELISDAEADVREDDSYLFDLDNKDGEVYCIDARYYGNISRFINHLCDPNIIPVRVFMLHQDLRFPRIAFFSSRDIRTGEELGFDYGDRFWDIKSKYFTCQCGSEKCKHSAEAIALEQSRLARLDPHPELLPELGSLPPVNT
Put plainly: In vitro G9a methyltransferase assay (AlphaLISA-based). The series is classed as biochemical. Also noted: purchased BPS Bioscience. On the procedure: An amplified luminescence proximity homogeneous assay (ALPHA) was performed with a modified version of a previously described method. Recombinant G9a proteins (BPS Bioscience) were incubated with 15 μM S-adenosyl-methionine (Sigma) and 50 nM biotinylated histone H3 (1-21; AnaSpec) in the assay buffer (50 mM Tris-HCl (pH 9.0), 50 mM NaCl, 0.01% Tween-20, and 1 mM DTT). After incubation at room temperature for 1 h, AlphaLISA anti-H3K9me2 acceptor beads (final concentration 10 μg/mL, PerkinElmer, AL117C) and AlphaScreen streptavidin donor beads (final concentration 10 μg/mL, PerkinElmer, 6760002B) were added and incubated for an additional 1 h prior to detection of the alpha signal with an EnSpire Alpha plate reader (PerkinElmer). ALPHA profile was analyzed using Origin (OriginLab).

The mark [4] stands for this setting: G9a activity, 0.016 μM, single experiment.
The mark [5] stands for this setting: G9a activity, 0.08 μM, single experiment.
Where [6] appears, read: G9a activity, 0.4 μM, single experiment.
Where [7] appears, read: G9a activity, 2 μM, single experiment.
Where [8] appears, read: G9a activity, single experiment.
[9] abbreviates: G9a activity, 10 μM, single experiment.
Where [10] appears, read: G9a activity, 50 μM, single experiment.
Where [11] appears, read: BCL11AKO, relative to Parental DMSO = 1, replicate values.
[12] abbreviates: ZBTB7AKO, relative to Parental DMSO = 1, replicate values.

Structures are written as SMILES. Where “and” joins values, the source holds several entries; their conditions need not be identical. Identical values can stand only once.

T2 sequence (Q9NRG4 whole entry): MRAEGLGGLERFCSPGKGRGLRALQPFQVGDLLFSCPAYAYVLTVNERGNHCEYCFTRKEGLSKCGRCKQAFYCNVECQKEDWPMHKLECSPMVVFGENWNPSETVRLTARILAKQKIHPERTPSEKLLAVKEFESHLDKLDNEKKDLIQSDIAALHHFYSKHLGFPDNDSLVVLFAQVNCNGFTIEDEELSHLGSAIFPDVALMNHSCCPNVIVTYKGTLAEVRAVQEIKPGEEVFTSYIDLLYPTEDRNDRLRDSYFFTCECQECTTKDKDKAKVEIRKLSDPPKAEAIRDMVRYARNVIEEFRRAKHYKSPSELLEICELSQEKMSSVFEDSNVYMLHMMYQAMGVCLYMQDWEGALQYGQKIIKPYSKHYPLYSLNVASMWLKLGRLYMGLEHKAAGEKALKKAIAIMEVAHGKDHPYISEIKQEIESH

Turning to `Cc1c(C(=O)NC(CCC2CC2)C(=O)Nc2ccc(C#N)cc2)[nH]c2c1C(=O)CC(C)(C)C2` (stereo not drawn) [RK-701], the IC50 was over 100000 nM against DNMT3b/3L (1 μM SAM); over 100000 nM on DNMT3b/3L (RK-701 in duplicate); over 100000 nM against SMYD2 (SMYD2, 1 μM SAM); over 100000 nM on SMYD2 (SMYD2, RK-701 in duplicate); 23 to 27 nM and 27 nM on G9a (G9a); 24.8 nM and 29 nM and 28.5 nM against G9a (setting [8]). Moreover, the BGLT3 expression was 6.941 and 5.75 and 6.485 and 4.87 and 5.182 and 3.691 in series [1] (BCL11A KO HUDEP-2 cells treated with RK-701, parental DMSO = 1, replicates 1a-3b); “could no longer increase BGLT3 expression” in series [1] (BCL11A knockout HUDEP-2); 4.7282 and 5.8001 and 5.631 and 4.239 and 5.932 and 4.543 in series [1] (ZBTB7A KO HUDEP-2 cells treated with RK-701, parental DMSO = 1, replicates 1a-3b); “prevented RK-701 from increasing BGLT3 expression” in series [1] (ZBTB7A knockout HUDEP-2). Further, the viability at 0.039 μM in series [2] is 101%. The viability at 0.156 μM in series [2] is 95.6%. Further, the “cell viability in H9c2 cells” value in series [3] (0.039 μM) is 91.465 and 104.927; in series [3] (0.156 μM), 91.465 and 106.022; in series [3] (0.625 μM) it was 97.754 and 88.280 and 116.423; in series [3] (2.5 μM) it was 95.509 and 92.994 and 114.051; in series [3] (10.0 μM), 145.310 and 89.427 and 118.431. Moreover, the “cytotoxic effect on viability” value in series [3] (H9c2, 5 days) is on record as “essentially no cytotoxic effect”. The Inhibition % was 6.475% and 0% at G9a (G9a activity, 0.00064 μM, single experiment); 30.3347% and 30.0776% on G9a (setting [4]); 81.1273% and 81.8822% at G9a (setting [5]); 98.9416% and 99.213% at G9a (setting [6]); 99.979% and 99.9697% at G9a (setting [7]). The molecule also had an inhibition at 0.016 µM against G9a (setting [4]) of 35.6%. Besides, testing at 0.08 µM at G9a (setting [5]) gave an inhibition of 82.3%. For the same molecule, testing at 0.4 µM against G9a (setting [6]) gave an inhibition of 99.3%. Also, on G9a (setting [7]), the inhibition at 2 µM was determined as 100%.
With `Cc1c(C(=O)N[C@H](CCC2CC2)C(=O)Nc2ccc(C#N)cc2)[nH]c2c1C(=O)CC(C)(C)C2` [RK-0133114], the viability at 0.039 μM in series [2] was found to be 89.5%. Besides, in series [2], the viability at 0.156 μM turned out to be 100%. The viability at 0.625 μM in series [2] (0.625 μM) is 116%. Besides, in series [2] (2.5 μM), the viability at 2.5 μM worked out at 85.5%. Besides, the viability at 10 μM in series [2] (10.0 μM) turned out to be 106%. Besides, the “cell viability in H9c2 cells” value in series [3] (0.039 μM) was 95.980 and 104.160; in series [3] (0.156 μM) it was 93.342 and 91.200; in series [3] (0.625 μM), 99.497 and 102.560; in series [3] (2.5 μM) it was 93.970 and 103.040; in series [3] (10.0 μM) it was 89.573 and 98.080. In addition, the IC50 on G9a (G9a) is 3700 nM; at G9a (setting [8]), 3010 nM and 3620 nM and 4440 nM. The Inhibition % at G9a (G9a activity, 0.0032 μM, single experiment) is 9.4545% and 6.383% and 0%; at G9a (setting [4]), 4.31% and 2.981% and 0%; at G9a (setting [5]), 0% and 8.43%; on G9a (setting [7]), 32.9012% and 25.4405%; on G9a (setting [9]), 77.5611% and 74.8715%; at G9a (setting [10]), 96.0953% and 94.6907%. Moreover, at G9a (setting [7]), the inhibition at 2 µM was found to be 42.7%. This molecule returned an inhibition at 10 µM at G9a (setting [9]) of 74.3%. This molecule also returned an inhibition at 50 µM against G9a (setting [10]) of 97.9%.
For `NC(=O)NO` [Hydroxyurea, hydroxyurea], in series [1] (setting [11]), the “β-globin in hydroxyurea-treated BCL11A-knockout HUDEP-2 cells” value was 0.8331 and 0.6286 and 0.8387. Also, the “γ-globin in hydroxyurea-treated BCL11A-knockout HUDEP-2 cells” value in series [1] (setting [11]) is 30.3873 and 19.1624 and 29.0192. In addition, the BGLT3 expression was 4.086 and 4.522 and 3.744 in series [1] (Left panel, BCL11AKO HUDEP-2 cells treated with hydroxyurea, Parental DMSO = 1, 3 replicates); 7.409 and 8.146 and 6.041 in series [1] (Left panel, ZBTB7AKO HUDEP-2 cells treated with hydroxyurea, Parental DMSO = 1, 3 replicates); 0.9046 and 1.002 and 0.9124 in series [1] (Right panel, BCL11AKO HUDEP-2 cells treated with hydroxyurea, DMSO of the same cells = 1, 3 replicates); 1.218 and 1.432 and 1.28 in series [1] (Right panel, ZBTB7AKO HUDEP-2 cells treated with hydroxyurea, DMSO of the same cells = 1, 3 replicates). For the same molecule, in series [1] (setting [12]), the “β-globin in hydroxyurea-treated ZBTB7A-knockout HUDEP-2 cells” value was 0.1643 and 0.09952 and 0.1527. Further, the “γ-globin in hydroxyurea-treated ZBTB7A-knockout HUDEP-2 cells” value in series [1] (setting [12]) is 16.1366 and 9.002 and 13.1897.
On to `Nc1ncnc2c1ncn2[C@@H]1O[C@H](CSCC[C@H](N)C(=O)O)[C@@H](O)[C@H]1O` [SAH, S-(5'-Adenosyl)-L-homocysteine, reference compound], for which the IC50 against DNMT3b/3L (1 μM SAM) came to 50 nM; at DNMT3b/3L (RK-701 in duplicate) it was 54.2 nM; on SMYD2 (SMYD2, 1 μM SAM), 1900 nM; at SMYD2 (SMYD2, RK-701 in duplicate) it was 1910 nM.
